# According to patent US20230278998A1, “Compound containing structure of a five-membered heteroaromatic ring, pharmaceutical compositions thereof and applications thereof” (280 Bio, Inc., priority 2022, published 2023):
# Molecular target: PARG (389-976) (Homo sapiens (Human), UniProt Q86W56)
# Assay: PARG enzyme inhibition assay (TR-FRET)
# Type: biochemical
# Conditions: Table 1, class symbol
# Procedure: PARG Enzyme Inhibition Assay
# PARG in vitro assays were conducted in standard 384-well plates in a total volume of 15 μL.
# Sequence of PARG (389-976) (Q86W56 389-976): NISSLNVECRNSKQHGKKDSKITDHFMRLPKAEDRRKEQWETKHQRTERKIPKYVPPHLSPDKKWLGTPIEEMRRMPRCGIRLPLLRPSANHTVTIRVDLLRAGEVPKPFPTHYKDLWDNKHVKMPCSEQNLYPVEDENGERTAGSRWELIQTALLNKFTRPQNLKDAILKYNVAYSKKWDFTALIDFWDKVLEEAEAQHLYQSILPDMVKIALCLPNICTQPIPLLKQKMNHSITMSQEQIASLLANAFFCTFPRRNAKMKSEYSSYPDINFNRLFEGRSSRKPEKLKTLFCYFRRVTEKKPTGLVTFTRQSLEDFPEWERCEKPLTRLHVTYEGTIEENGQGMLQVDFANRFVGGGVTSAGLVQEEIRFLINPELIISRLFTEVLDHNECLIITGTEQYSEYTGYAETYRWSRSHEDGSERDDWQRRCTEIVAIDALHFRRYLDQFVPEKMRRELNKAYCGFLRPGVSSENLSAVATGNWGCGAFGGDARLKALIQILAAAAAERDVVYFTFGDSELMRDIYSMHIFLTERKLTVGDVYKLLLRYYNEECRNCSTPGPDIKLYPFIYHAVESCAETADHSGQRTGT
row,Structure (SMILES),IC50
1,Cc1nnc(-c2nn(Cc3sc(C)nc3C)c3ccc(S(=O)(=O)NC4(C)CC4)cc23)s1 [Compound 2],< 100 nM
2,Cc1nc(C)c(Cn2c(Cl)c(-c3nnc(C(F)F)s3)c3cc(S(=O)(=O)NC4(C)CC4)ccc32)s1 [Compound 7],< 100 nM

# Same assay, conditions: Table 2, class symbol
row,Structure (SMILES),IC50
1,Cn1nc(-c2nnc(C(F)F)s2)c2cc(S(=O)(=O)NC3(C#N)CC3)cc(N3CCN(C(=O)CC(F)(F)F)CC3)c21 [Compound 52],< 100 nM
2,CCC(=O)N1CCN(c2cc(S(=O)(=O)NC3(C#N)CC3)cc3c(-c4nnc(C(F)F)s4)nn(C)c23)CC1 [Compound 45],< 100 nM
3,CC(=O)N1CCN(c2cc(S(=O)(=O)NC3(C#N)CC3)cc3c(-c4nnc(C(F)F)s4)nn(C)c23)CC1 [Compound 32],< 100 nM
4,Cc1nc(C)c(Cn2nc(-c3nnc(C(F)F)s3)c3cc(S(=O)(=O)NC4(C)CC4)cc(F)c32)s1 [Compound 14],< 100 nM
5,Cn1nc(-c2nnc(C(F)F)s2)c2cc(S(=O)(=O)NC3(C#N)CC3)cc(N3CCC4(CC3)COC4)c21 [Compound 46],< 100 nM
6,Cn1nc(-c2nnc(C(F)F)s2)c2cc(S(=O)(=O)NC3(C#N)CC3)cc(N3CCN(C(=O)C4CC4)CC3)c21 [Compound 24],< 100 nM
7,CCC(C)C(=O)N1CCN(c2cc(S(=O)(=O)NC3(C#N)CC3)cc3c(-c4nnc(C(F)F)s4)nn(C)c23)CC1 (stereo not shown) [Compound 50],< 100 nM
8,CC(C)C(=O)N1CCN(c2cc(S(=O)(=O)NC3(C)CC3)cc3c(-c4nnc(C(F)F)s4)nn(C)c23)C2CC21 (stereo not shown) [Compound 63],< 100 nM
9,Cn1nc(-c2nnc(C(F)F)s2)c2cc(S(=O)(=O)NC3(C#N)CC3)cc(N3CCC(N=[N+]=[N-])CC3)c21 [Compound 60],< 100 nM
10,CCn1nc(-c2nnc(C(F)F)s2)c2cc(S(=O)(=O)NC3(C)CC3)cc(N3CCN(C(=O)C(C)C)CC3)c21 [Compound 22],< 100 nM
11,Cn1nc(-c2nnc(C(F)F)s2)c2cc(S(=O)(=O)NC3(C#N)CC3)cc(N3CCOCC3)c21 [Compound 29],< 100 nM
12,CC(C)C(=O)N1C2CCC1CN(c1cc(S(=O)(=O)NC3(C)CC3)cc3c(-c4nnc(C(F)F)s4)nn(C)c13)C2 [Compound 65],< 100 nM
13,Cn1nc(-c2nnc(C(F)F)s2)c2cc(S(=O)(=O)NC3(C#N)CC3)cc(N3CCN(C(=O)C4(C)CC4)CC3)c21 [Compound 38],< 100 nM
14,Cn1nc(-c2nnc(C(F)F)s2)c2cc(S(=O)(=O)NC3(C#N)CC3)cc(N3CCN(C(=O)N4CCCC4)CC3)c21 [Compound 51],< 100 nM
15,Cn1nc(-c2nnc(C(F)F)s2)c2cc(S(=O)(=O)NC3(C#N)CC3)cc(N3CCN(c4ccccc4)CC3)c21 [Compound 53],< 100 nM
16,Cn1nc(-c2nnc(C(F)F)s2)c2cc(S(=O)(=O)NC3(C#N)CC3)cc(N3CCC(CO)CC3)c21 [Compound 44],< 100 nM
17,CC(C)C(=O)N1CCN(c2cc(S(=O)(=O)NC3(C)CC3)cc3c(-c4nnc(C(F)F)s4)nn(C4CC4)c23)CC1 [Compound 21],< 100 nM
18,Cn1nc(-c2nnc(C(F)F)s2)c2cc(S(=O)(=O)NC3(C#N)CC3)cc(N3CCC(O)CC3)c21 [Compound 42],< 100 nM
19,Cn1nc(-c2nnc(C(F)F)s2)c2cc(S(=O)(=O)NC3(C)CC3)cc(N3CCN(C(=O)C4CC4)CC3)c21 [Compound 27],< 100 nM
20,Cn1nc(-c2nnc(C(F)F)s2)c2cc(S(=O)(=O)NC3(C#N)CC3)cc(N3CCN(C(=O)c4ccccc4)CC3)c21 [Compound 36],< 100 nM
21,CC(C)C(=O)N1CCN(c2cc(S(=O)(=O)NC3(C)CC3)cc3c(-c4nnc(C(F)F)s4)csc23)CC1 [Compound 64],< 100 nM
22,CC(C)N1CCN(c2cc(S(=O)(=O)NC3(C#N)CC3)cc3c(-c4nnc(C(F)F)s4)nn(C)c23)CC1 [Compound 54],< 100 nM
23,Cc1nc(C)c(Cn2nc(-c3nnc(C(F)F)s3)c3cc(S(=O)(=O)NC4(C)CC4)cc(N4CCN(C(=O)C(C)C)CC4)c32)s1 [Compound 19],< 100 nM
24,CCn1nc(-c2nnc(C(F)F)s2)c2cc(S(=O)(=O)NC3(C#N)CC3)cc(N3CCN(C(=O)C(C)C)CC3)c21 [Compound 26],< 100 nM
25,Cn1nc(-c2nnc(C(F)F)s2)c2cc(S(=O)(=O)NC3(C#N)CC3)cc(-c3ccncn3)c21 [Compound 31],< 100 nM
26,CC(C)C(=O)N1CCN(c2cc(S(=O)(=O)NC3(C#N)CC3)cc3c(-c4nnc(C(F)F)s4)n[nH]c23)CC1 [Compound 18],< 100 nM
27,CC(C)C(=O)N1CCN(c2cc(S(=O)(=O)NC3(C)CC3)cc3c(-c4nnc(C(F)F)s4)nn(CC4CC4)c23)CC1 [Compound 15],< 100 nM
28,CC(C)C(=O)N1CCN(c2cc(S(=O)(=O)NC3(C#N)CC3)cc3c(-c4nnc(C(F)F)s4)nn(C(F)F)c23)CC1 [Compound 55],< 100 nM
29,CC(C)C(=O)N1CCN(c2cc(S(=O)(=O)NC3(C)CC3)cc3c(-c4nnc(C(F)F)s4)nn(CC(F)(F)F)c23)CC1 [Compound 23],< 100 nM

# Same assay, conditions: Table 2, value in brackets
row,Structure (SMILES),IC50
1,Cn1nc(-c2nnc(C(F)F)s2)c2cc(S(=O)(=O)NC3(C#N)CC3)cc(N3CCC4(CC3)COC4)c21 [Compound 46],0.9 nM
2,CC(C)C(=O)N1CCN(c2cc(S(=O)(=O)NC3(C#N)CC3)cc3c(-c4nnc(C(F)F)s4)n[nH]c23)CC1 [Compound 18],0.9 nM

# Same assay, conditions: Table 3, class symbol
row,Structure (SMILES),IC50
1,Cn1nc(-c2nnc(C(F)F)s2)c2cc(S(=O)(=O)NC3(C#N)CC3)cc(N3CCC(C(C)(C)O)CC3)c21 [Compound 76],< 100 nM
2,C[C@H](O)C(=O)N1CCC(c2cc(S(=O)(=O)NC3(C#N)CC3)cc3c(-c4nnc(C(F)F)s4)nn(C)c23)CC1 [Compound 114],< 100 nM
3,CN1CCC(C(=O)N2C3CCC2CN(c2cc(S(=O)(=O)NC4(C#N)CC4)cc4c(-c5nnc(C(F)F)s5)nn(C)c24)C3)C1 (stereo not shown) [Compound 74],< 100 nM
4,C[C@H](N)C(=O)N1C2CCC1CN(c1cc(S(=O)(=O)NC3(C#N)CC3)cc3c(-c4nnc(C(F)F)s4)nn(C)c13)C2 [Compound 73],< 100 nM
5,C[C@H](O)C(=O)N1C2C=C(c3cc(S(=O)(=O)NC4(C#N)CC4)cc4c(-c5nnc(C(F)F)s5)nn(C)c34)CC1CC2 (stereo partly shown) [Compound 80],< 100 nM
6,CC(C)C(=O)N1C2CCC1CC(c1cc(S(=O)(=O)NC3(C#N)CC3)cc3c(-c4nnc(C(F)F)s4)nn(C)c13)C2 (stereo not shown) [Compound 127],< 100 nM
7,CC(C)C(=O)N1CCN(c2cc(S(=O)(=O)NC3(C#N)CC3)cc3c(-c4nnc(C(F)F)s4)nn(CC#N)c23)C[C@H]1C [Compound 115],< 100 nM
8,Cn1nc(-c2nnc(C(F)F)s2)c2cc(S(=O)(=O)NC3(C#N)CC3)cc(N3CC4CCC(C3)N4C(=O)C3CCCC3)c21 [Compound 75],< 100 nM
9,Cn1nc(-c2nnc(C(F)F)s2)c2cc(S(=O)(=O)NC3(C#N)CC3)cc(N3CCN(C(=O)C4(C)CCC4)CC3)c21 [Compound 143],< 100 nM
10,Cn1nc(-c2nnc(C(F)F)s2)c2cc(S(=O)(=O)NC3(C#N)CC3)cc(N3CCC(N4CCCC4=O)CC3)c21 [Compound 139],< 100 nM
11,CC(C)C(=O)N1CC2CCC(C1)N2c1cc(S(=O)(=O)NC2(C#N)CC2)cc2c(-c3nnc(C(F)F)s3)nn(C)c12 [Compound 101],< 100 nM
12,C[C@H]1CN(c2cc(S(=O)(=O)NC3(C#N)CC3)cc3c(-c4nnc(C(F)F)s4)nn(C)c23)CCN1C(=O)N(C)C [Compound 71],< 100 nM
13,CC(C)C(=O)N1CCN(c2cc(S(=O)(=O)NC3(C)CC3)cc3c(-c4nnc(C(F)F)s4)nn(C)c23)C[C@@H]1C [Compound 82],< 100 nM
14,CC(C)C(=O)N1CCN(c2cc(S(=O)(=O)NC3(C#N)CC3)cc3c(-c4nnc(C(F)F)s4)nn(CC(F)(F)F)c23)C[C@@H]1C [Compound 108],< 100 nM
15,CCn1nc(-c2nnc(C(F)F)s2)c2cc(S(=O)(=O)NC3(C#N)CC3)cc(N3CC4CCC(C3)N4C(=O)C(C)C)c21 [Compound 93],< 100 nM
16,CC(C)C(=O)N1CCN(c2cc(S(=O)(=O)NC3(C#N)CC3)cc3c(-c4nnc(C(F)F)s4)nn(CC(F)(F)F)c23)C[C@H]1C [Compound 109],< 100 nM

row,Structure (SMILES),IC50
1,C[C@H](N)C(=O)N1CC=C(c2cc(S(=O)(=O)NC3(C#N)CC3)cc3c(-c4nnc(C(F)F)s4)nn(C)c23)CC1 [Compound 81],< 100 nM
2,CC(C)C(=O)N1C2C=C(c3cc(S(=O)(=O)NC4(C#N)CC4)cc4c(-c5nnc(C(F)F)s5)nn(C)c34)CC1CCC2 (stereo not shown) [Compound 83],< 100 nM
3,C[C@H](O)C(=O)N1CCN(c2cc(S(=O)(=O)NC3(C#N)CC3)cc3c(-c4nnc(C(F)F)s4)nn(CC(F)(F)F)c23)CC1 [Compound 110],< 100 nM
4,CC(C)C(=O)N1C2C=C(c3cc(S(=O)(=O)NC4(C#N)CC4)cc4c(-c5nnc(C(F)F)s5)nn(C)c34)CC1COC2 (stereo not shown) [Compound 85],< 100 nM
5,COCCn1nc2c(N3CC4CCC(C3)N4C(=O)C(C)C)cc(S(=O)(=O)NC3(C#N)CC3)cc2c1-c1nnc(C(F)F)s1 [Compound 99],< 100 nM
6,C[C@H](N)C(=O)N1CCC(c2cc(S(=O)(=O)NC3(C#N)CC3)cc3c(-c4nnc(C(F)F)s4)nn(C)c23)CC1 [Compound 98],< 100 nM
7,Cn1nc(-c2nnc(C(F)F)s2)c2cc(S(=O)(=O)NC3(C#N)CC3)cc(N3CCN(C(=O)C4CCCC4)CC3)c21 [Compound 142],< 100 nM
8,CN(C)C(=O)C1CCN(c2cc(S(=O)(=O)NC3(C#N)CC3)cc3c(-c4nnc(C(F)F)s4)nn(C)c23)CC1 [Compound 90],< 100 nM
9,CC(C)C(=O)N1C2CCC1CN(c1cc(S(=O)(=O)NC3(C#N)CC3)cc3c(-c4nnc(C(F)F)s4)nn(C)c13)C2 [Compound 102],< 100 nM
10,CCN(C)C(=O)N1CCN(c2cc(S(=O)(=O)NC3(C#N)CC3)cc3c(-c4nnc(C(F)F)s4)nn(C)c23)CC1 [Compound 145],< 100 nM
11,Cn1nc(-c2nnc(C(F)F)s2)c2cc(S(=O)(=O)NC3(C#N)CC3)cc(C3=CCC(C(=O)N4CCCC4)CC3)c21 (stereo not shown) [Compound 137],< 100 nM
12,CN(C)C(=O)c1ccc(-c2cc(S(=O)(=O)NC3(C#N)CC3)cc3c(-c4nnc(C(F)F)s4)nn(C)c23)cc1 [Compound 132],< 100 nM
13,CC(C)CC(=O)N1CCN(c2cc(S(=O)(=O)NC3(C#N)CC3)cc3c(-c4nnc(C(F)F)s4)nn(C)c23)CC1 [Compound 146],< 100 nM
14,C[C@H](N)C(=O)N1CCN(c2cc(S(=O)(=O)NC3(C#N)CC3)cc3c(-c4nnc(C(F)F)s4)nn(CC(F)(F)F)c23)CC1 [Compound 111],< 100 nM
15,CC(C)C(=O)N1CC=C(c2cc(S(=O)(=O)NC3(C#N)CC3)cc3c(-c4nnc(C(F)F)s4)nn(C[C@@H](O)CO)c23)CC1 [Compound 136],< 100 nM
